Data on 15 compounds can be found in US11065249B2, “Diacylglycerol acyl transferase 2 inhibitor” (Pfizer Inc., priority 2019, dated 2021).

A word on the microsomal CLint: it is the rate of metabolic loss divided by the concentration. High values mean rapid turnover, low ones slow turnover. As a reminder, the IC50 is the concentration needed to halve the response being measured. Read a high IC50 as weaker potency. A word on the pKa: it is the pH at which an ionisable group is half protonated. Read a high pKa as a weaker acid or stronger base. As usually defined, the hepatocyte CLint is the capacity of the preparation to metabolise the compound, expressed as a volume cleared per time.

The nature of data set [1]: Intrinsic clearance in human liver microsomes. The class given is in vitro ADME. Particulars: 1 μM test compound, mean +/− STD Dev; for microsomal CLint at 1 μM: human, pooled human liver microsomes, pH 7.4, human liver microsome assay. The protocol: The incubations were conducted at 37° C. […] (Sorvall R C 3C Plus, Thermo Scientific, Waltham, Mass.).
For the next data set, the target named is human DGAT2 (hDGAT2) (Homo sapiens (Human), UniProt Q96PD7). In words: In vitro DGAT2 assay, determination of IC50 values for DGAT2 inhibitors. The class given is biochemical. Particulars: inhibition of DGAT2, hDGAT2 membrane fractions; geometric mean. The protocol:
Recombinant baculovirus for the FLAG-tagged hDGAT2 was generated in SF9 insect cells using Bac-to-Bac baculovirus expression system (Invitrogen) according to the manufacturer's protocol. For the expression of hDGAT2, SF9 cells (20 L) grown in Sf900II media were infected with hDGAT2 baculovirus at a multiplicity of infection of 1 in a Wave Bioreactor System 20/50P wave bag (GE Healthcare). After 40 hours of infection, the cells were then harvested by centrifugation at 5,000×g. The cell pellets were washed by resuspending in phosphate buffered saline (PBS) and collected by centrifugation at 5,000×g. The cell paste was flash frozen in liquid N2 and stored at −80° C. until needed. All operations below were at 4° C. unless otherwise noted. The cells were resuspended in lysis buffer (50 mM Tris-HCl, pH 8.0, 250 mM sucrose) including 1 mM ethylenediaminetetraacetic acid (EDTA) and the complete protease inhibitor cocktail (Roche Diagnostics) at a ratio of 3 mL buffer per 1 g cell paste. The cells were lysed by dounce homogenizer. The cell debris was removed by centrifugation at 1,000×g for 20 min, and the supernatant was centrifuged at 100,000×g for 1 hour. The resulting pellet was rinsed three times by filling ultracentrifuge tubes to the top with ice cold PBS before decanting. The washed pellet was resuspended with gentle stirring for 1 hour in lysis buffer containing 8 mM 3-[(3-cholamidopropyl)dimethylammonio]-1-propanesulfonate (CHAPS) at a ratio of 1 mL buffer per 1 g of original cell paste and centrifuged again at 100,000×g for 1 hour. The resulting supernatant was aliquotted, flash frozen in liquid N2, and stored at −80° C. until use.
To 1 μL of compounds dissolved in 100% DMSO and spotted at the bottom of each well, 5 μL of 0.04% bovine serum albumin (BSA) (fatty acid free, Sigma Aldrich) was added and the mixture was incubated at room temperature for 15 minutes. hDGAT2 membrane fractions were diluted in 100 mM Hepes-NaOH, pH 7.4, 20 mM MgCl2 containing 200 nM methyl arachidonyl fluorophosphonate (Cayman Chemical, dried from ethyl acetate stock solution under argon gas and dissolved in DMSO as 5 mM stock). 10 μL of this enzyme working solution was added to the plates and incubation continued for 2 hours at room temperature. DGAT2 reactions were initiated by the addition of 4 μL of substrates containing 30 μM [1-^14C]decanoyl-CoA (custom-synthesized by Perkin Elmer, 50 mCi/mmol) and 125 μM 1,2-didecanoyl-sn-glycerol (Avanti Polar Lipids) dissolved in 12.5% acetone. The reaction mixtures were incubated at room temperature for 40 min and the reactions were stopped by addition of 5 μL of 1% H3PO4. After the addition of 45 μL MicroScint-E (Perkin-Elmer), plates were sealed with Top Seal-A covers (Perkin-Elmer) and phase partitioning of substrates and products was achieved using a HT-91100 microplate orbital shaker (Big Bear Automation, Santa Clara, Calif.). Plates were centrifuged at 2,000×g for 1 minute in an Allegra 6R Centrifuge (Beckman Coulter) and then were sealed again with fresh covers before reading in a 1450 Microbeta Wallac Trilux Scintillation Counter (Perkin Elmer). DGAT2 activity was measured by quantifying the generated product [^14C]tridecanoylglycerol in the upper organic phase.
Inhibitors were tested at eleven different concentrations to generate IC50 values for each compound.

Data set [2] can be described thus: Determination of pKa (capillary electrophoresis, Analiza). The class given is physicochemical. The conditions noted are these: most basic pKa, mean.
Data set [3] in a line: High throughput determination of intrinsic clearance in human hepatocytes. The class given is in vitro ADME. Particulars: human, pooled cryopreserved human hepatocytes (suspension), high throughput human hepatocyte assay, 1 μM test compound; mean +/− Std Dev. The protocol: The incubation was carried out at 37° C. […] The samples were centrifuged (Eppendorf, Hauppauge, N.Y.) at 3000 rpm for 5 min at 4° C.

Structures can show the parent of a compound that is named as a salt. Bounds are passed on as bounds.

Chain of human DGAT2 (hDGAT2) (Q96PD7 whole entry): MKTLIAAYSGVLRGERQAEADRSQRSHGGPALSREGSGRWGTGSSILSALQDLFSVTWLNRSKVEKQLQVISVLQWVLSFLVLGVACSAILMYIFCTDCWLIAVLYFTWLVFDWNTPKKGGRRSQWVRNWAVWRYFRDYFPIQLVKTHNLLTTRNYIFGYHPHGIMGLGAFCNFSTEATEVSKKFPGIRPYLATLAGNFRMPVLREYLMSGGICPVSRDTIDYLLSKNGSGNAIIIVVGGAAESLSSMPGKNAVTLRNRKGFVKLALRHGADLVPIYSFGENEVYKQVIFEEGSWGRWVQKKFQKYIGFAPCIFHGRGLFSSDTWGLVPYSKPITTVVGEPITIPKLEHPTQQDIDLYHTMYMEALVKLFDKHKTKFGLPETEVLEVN

Consider `CCOc1cccnc1Oc1cncc(-c2ncc(C(=O)NC3CCCNC3C)cn2)c1` (mixture of isomers) [Example 23, 2-{5-[(3-ethoxypyridin-2-yl)oxy]pyridin-3-yl}-N-(2-methylpiperidin-3-yl)pyrimidine-5-carboxamide, trifluoroacetate salt, mixture of stereoisomers], for which the microsomal CLint at 1 μM in data set [1] is less than 8 µL/min/mg.
In data set [1], `CCOc1cccnc1Oc1cncc(-c2ncc(C(=O)N[C@H]3CNCC[C@H]3C)cn2)c1` (racemic) [Example 20, rac-2-{5-[(3-ethoxypyridin-2-yl)oxy]pyridin-3-yl}-N-[(3R,4R)-4-methylpiperidin-3-yl]pyrimidine-5-carboxamide, trifluoroacetate salt] came in with a microsomal CLint at 1 μM of 8.9 µL/min/mg. The compound also yielded an IC50 against human DGAT2 (hDGAT2) of 2100 nM.
`CCOc1cccnc1Oc1cncc(-c2ncc(C(=O)N[C@@H]3CNCC[C@H]3C)cn2)c1` (racemic) [Example 24, rac-2-{5-[(3-ethoxypyridin-2-yl)oxy]pyridin-3-yl}-N-[(3R,4S)-4-methylpiperidin-3-yl]pyrimidine-5-carboxamide, trifluoroacetate salt] registered a microsomal CLint at 1 μM in data set [1] of less than 8 µL/min/mg. Moreover, on human DGAT2 (hDGAT2), half-maximal inhibition (IC50) was put at 16000 nM.
For the compound `CCOc1cccnc1Oc1cncc(-c2ncc(C(=O)N[C@H]3CCC(C(F)(F)F)NC3)cn2)c1` (single isomer, unassigned) [Example 8, rac-2-{5-[(3-ethoxypyridin-2-yl)oxy]pyridin-3-yl}-N-[(3R,6S)-6-(trifluoromethyl)piperidin-3-yl]pyrimidine-5-carboxamide or rac-2-{5-[(3-ethoxypyridin-2-yl)oxy]pyridin-3-yl}-N-[(3R,6R)-6-(trifluoromethyl)piperidin-3-yl]pyrimidine-5-carboxamide], the pKa in data set [2] worked out at 5.3. This compound also returned an intrinsic clearance (microsomal CLint) at 1 μM in data set [1] of less than 14 µL/min/mg. The same compound displayed an IC50 at human DGAT2 (hDGAT2) of 650 nM.
In data set [3], `CCOc1cccnc1Oc1cncc(-c2ncc(C(=O)N[C@H]3CNCCC3(F)F)cn2)c1` (single isomer, unassigned) [Example 15, N-[(3S)-4,4-difluoropiperidin-3-yl]-2-{5-[(3-ethoxypyridin-2-yl)oxy]pyridin-3-yl}pyrimidine-5-carboxamide, trifluoroacetate salt or N-[(3R)-4,4-difluoropiperidin-3-yl]-2-{5-[(3-ethoxypyridin-2-yl)oxy]pyridin-3-yl}pyrimidine-5-carboxamide, trifluoroacetate salt] showed a hepatocyte CLint at 1 μM of 5.3 µL/min/1e6 cells. In addition, the microsomal CLint at 1 μM in data set [1] was determined as 21 µL/min/mg.
`CCOc1cccnc1Oc1cncc(-c2ncc(C(=O)N[C@H]3CNCCC3(F)F)cn2)c1` (single isomer, unassigned) [Example 16, N-[(3S)-4,4-difluoropiperidin-3-yl]-2-{5-[(3-ethoxypyridin-2-yl)oxy]pyridin-3-yl}pyrimidine-5-carboxamide, trifluoroacetate salt or N-[(3R)-4,4-difluoropiperidin-3-yl]-2-{5-[(3-ethoxypyridin-2-yl)oxy]pyridin-3-yl}pyrimidine-5-carboxamide, trifluoroacetate salt] gave a pKa in data set [2] of 6.4. Besides, the “CLint (+/−STD Dev)” value in data set [1] (human liver microsome assay, trifluoroacetate salt) is 17 µL/min/mg. For the same compound, the IC50 on human DGAT2 (hDGAT2) turned out to be 480 nM.
Take `CCOc1cccnc1Oc1cncc(-c2ncc(C(=O)N[C@@H]3CNCC(F)(F)C3)cn2)c1` (single isomer, unassigned) [Example 18, N-[(3S)-5,5-difluoropiperidin-3-yl]-2-{5-[(3-ethoxypyridin-2-yl)oxy]pyridin-3-yl}pyrimidine-5-carboxamide or N-[(3R)-5,5-difluoropiperidin-3-yl]-2-{5-[(3-ethoxypyridin-2-yl)oxy]pyridin-3-yl}pyrimidine-5-carboxamide]: the pKa in data set [2] turned out to be 5.2. The compound also gave a hepatocyte CLint at 1 μM in data set [3] of 9.3 µL/min/1e6 cells. For the same compound, in data set [1], the microsomal CLint at 1 μM was found to be 19 µL/min/mg.
The like results for `CCOc1cc(F)cnc1Oc1cncc(-c2ncc(C(=O)N[C@@H]3CNC[C@@H](F)C3)cn2)c1` [Example 2, 2-{5-[(3-Ethoxy-5-fluoropyridin-2-yl)oxy]pyridin-3-yl}-N-[(3S,5S)-5-fluoropiperidin-3-yl]pyrimidine-5-carboxamide] were, in that order, 7.3, 3.6 µL/min/1e6 cells and less than 7 µL/min/mg.
In turn, `CCOc1cc(F)cnc1Oc1cncc(-c2ncc(C(=O)N[C@@H]3CNCC[C@H]3F)cn2)c1` [Example 6, 2-{5-[(3-Ethoxy-5-fluoropyridin-2-yl)oxy]pyridin-3-yl}-N-[(3R,4R)-4-fluoropiperidin-3-yl]pyrimidine-5-carboxamide] registered a pKa in data set [2] of 7.4. The same compound gave a hepatocyte CLint at 1 μM in data set [3] of 4.7 µL/min/1e6 cells. The same compound returned a microsomal CLint at 1 μM in data set [1] of less than 7.8 µL/min/mg.
In data set [2], `CCOc1cccnc1Oc1cncc(-c2ncc(C(=O)N[C@H]3CNCC[C@@H]3F)cn2)c1` [Example 12, 2-{5-[(3-ethoxypyridin-2-yl)oxy]pyridin-3-yl}-N-[(3S,4S)-4-fluoropiperidin-3-yl]pyrimidine-5-carboxamide, trifluoroacetate salt] registered a pKa of 7.5. This compound showed a hepatocyte CLint at 1 μM in data set [3] of less than 2.6 µL/min/1e6 cells. In addition, the microsomal CLint at 1 μM in data set [1] is less than 7 µL/min/mg.
For the compound `CCOc1cc(F)cnc1Oc1cncc(-c2ncc(C(=O)N[C@H]3CNCC[C@@H]3F)cn2)c1` [Example 13, 2-{5-[(3-ethoxy-5-fluoropyridin-2-yl)oxy]pyridin-3-yl}-N-[(3S,4S)-4-fluoropiperidin-3-yl]pyrimidine-5-carboxamide, formate salt], the pKa in data set [2] stood at 6.7. In data set [3], this compound had a hepatocyte CLint at 1 μM of 12 µL/min/1e6 cells. Besides, in data set [1], the microsomal CLint at 1 μM was determined as 35 µL/min/mg.
In turn, `CCOc1cccnc1Oc1cncc(-c2ncc(C(=O)N[C@H]3CCCNC3)cn2)c1` [Example 14, 2-{5-[(3-ethoxypyridin-2-yl)oxy]pyridin-3-yl}-N-[(3S)-piperidin-3-yl]pyrimidine-5-carboxamide, trifluoroacetate salt] gave a hepatocyte CLint at 1 μM in data set [3] of less than 1.8 µL/min/1e6 cells. Moreover, the microsomal CLint at 1 μM in data set [1] was less than 8 µL/min/mg.
`CCOc1cccnc1Oc1cncc(-c2ncc(C(=O)NC3CNCC(F)(F)C3)cn2)c1` (centres unmarked) [Example 17, N-(5,5-difluoropiperidin-3-yl)-2-{5-[(3-ethoxypyridin-2-yl)oxy]pyridin-3-yl}pyrimidine-5-carboxamide]: the pKa in data set [2] is 5.4. Further, the hepatocyte CLint at 1 μM in data set [3] came out at 8.3 µL/min/1e6 cells. Besides, the microsomal CLint at 1 μM in data set [1] is 23 µL/min/mg.
For `CCOc1cccnc1Oc1cncc(-c2ncc(C(=O)NC3CCCNC3)cn2)c1` (centres unmarked) [Example 21, 2-{5-[(3-ethoxypyridin-2-yl)oxy]pyridin-3-yl}-N-(piperidin-3-yl)pyrimidine-5-carboxamide, trifluoroacetate salt], in data set [1], the microsomal CLint at 1 μM is less than 8 µL/min/mg.
Still for that read-out and setting: the figure for `CCOc1cccnc1Oc1cncc(-c2ncc(C(=O)N[C@@H]3CCCNC3)cn2)c1` [Example 22, 2-{5-[(3-ethoxypyridin-2-yl)oxy]pyridin-3-yl}-N-[(3R)-piperidin-3-yl]pyrimidine-5-carboxamide, trifluoroacetate salt] is less than 8 µL/min/mg.
